Results reported in patent EP1077981B1, “NOVEL CEPHALOSPORIN COMPOUNDS, PROCESSES FOR PREPARATION THEREOF AND ANTIMICROBIAL COMPOSITIONS CONTAINING THE SAME” (LG CHEMICAL LIMITED, priority 1998, dated 1999).
In brackets after ≈: the same amount, converted by molar mass. Read-outs that look alike come from different tables or passages of the source.

Key:
Assay in all cases: MIC against standard strains (agar dilution)
Assay type in all cases: cell-based
[1] = system: Acinetobacter calcoaceticu 15473; details: Acinetobacter calcoaceticu 15473; Mueller-Hinton agar, 20 hours at 37°C; read-out: MIC
Experimental: (§1) Test example 1: Measurement of Minimum Inhibitory Concentration (MIC)
(§2) Specifically, test compounds were diluted by 2-fold dilution method and dispersed in Mueller-Hinton agar medium and then, 2µℓ of test strains were inoculated at a concentration of 10^7 cfu(colony forming unit)/mℓ on the medium and incubated for 20 hours at 37°C.

[2] = system: Citrobacter diversus 2046E; details: Citrobacter koseri; Citrobacter diversus 2046E; Mueller-Hinton agar, 20 hours at 37°C; read-out: MIC
Experimental: as §1, §2

[3] = system: Citrobacter freundii 8090; details: Citrobacter freundii 8090; Mueller-Hinton agar, 20 hours at 37°C; read-out: MIC
Experimental: as §1, §2

E. coli = details: Escherichia coli, Mueller-Hinton agar, 10^7 cfu/mℓ, 20 hours at 37°C
Experimental: as §1, §2

[4] = system: Enterobacter cloacae IND+VE 1194E; details: Enterobacter cloacae IND+VE 1194E; Mueller-Hinton agar, 20 hours at 37°C; read-out: MIC
Experimental: as §1, §2

Enterobacter cloacae P99 = details: Enterobacter cloacae P99; Mueller-Hinton agar, 20 hours at 37°C; read-out: MIC
Experimental: as §1, §2

[5] = system: Enterococcus faecalis 29212; details: Enterococcus faecalis 29212; Mueller-Hinton agar, 20 hours at 37°C; read-out: MIC
Experimental: as §1, §2

Escherichia coli 10536 = details: Escherichia coli 10536; Mueller-Hinton agar, 20 hours at 37°C; read-out: MIC
Experimental: as §1, §2

Escherichia coli 3190Y = system: Escherichia coli 3190Y
Experimental: as §1, §2

Escherichia coli 851E = system: Escherichia coli 851E
Experimental: as §1, §2

[6] = system: Escherichia coli TEM1 1193E; details: TEM11193E, 20 h
Experimental: as §1, §2

[7] = system: Escherichia coli TEM3 3455E; details: TEM33455E, 20 h
Experimental: as §1, §2

[8] = system: Escherichia coli TEM9 2639E; details: TEM92639E; Escherichia coli TEM9 2639E; Mueller-Hinton agar, 20 hours at 37°C; read-out: MIC
Experimental: as §1, §2

H. influenzae = details: Haemophilus influenzae; H. influenzae; Mueller-Hinton agar, 10^7 cfu/mℓ, 20 hours at 37°C; read-out: MIC
Experimental: as §1, §2

[9] = system: Klebsiella aerogenes K1+ 1082E; details: Klebsiella aerogenes K1+ 1082E; Mueller-Hinton agar, 20 hours at 37°C; read-out: MIC
Experimental: as §1, §2

[10] = system: Klebsiella aerogenes SHV-1 1976E
Experimental: as §1, §2

[11] = system: Klebsiella pneumoniae 2011E; details: Klebsiella pneumoniae 2011E; Mueller-Hinton agar, 20 hours at 37°C; read-out: MIC
Experimental: as §1, §2

[12] = system: Moraxella catarrhalis 25240; details: Moraxella catarrhalis 25240; Mueller-Hinton agar, 20 hours at 37°C; read-out: MIC
Experimental: as §1, §2

[13] = system: Moraxella catarrhalis C2431; details: Moraxella catarrhalis C2431; Mueller-Hinton agar, 20 hours at 37°C; read-out: MIC
Experimental: as §1, §2

[14] = system: Morganella morganii 1375E; details: Morganella morganii 1375E; Mueller-Hinton agar, 20 hours at 37°C; read-out: MIC
Experimental: as §1, §2

P. vulgaris = details: Proteus vulgaris, Mueller-Hinton agar, 10^7 cfu/mℓ, 20 hours at 37°C
Experimental: as §1, §2

Proteus vulgaris 6059 = details: Proteus vulgaris 6059; Mueller-Hinton agar, 20 hours at 37°C; read-out: MIC
Experimental: as §1, §2

[15] = system: Pseudomonas aeruginosa 1912E; details: Pseudomonas aeruginosa 1912E; Mueller-Hinton agar, 20 hours at 37°C; read-out: MIC
Experimental: as §1, §2

[16] = system: Pseudomonas aeruginosa 6065Y; details: Pseudomonas aeruginosa 6065Y; Mueller-Hinton agar, 20 hours at 37°C; read-out: MIC
Experimental: as §1, §2

S. aureus = details: Staphylococcus aureus, Mueller-Hinton agar, 10^7 cfu/mℓ, 20 hours at 37°C
Experimental: as §1, §2

S. pneumoniae = details: Streptococcus pneumoniae, Mueller-Hinton agar, 10^7 cfu/mℓ, 20 hours at 37°C
Experimental: as §1, §2

[17] = system: Salmonella typhimurium 14028; details: Salmonella enterica; Salmonella typhimurium 14028; Mueller-Hinton agar, 20 hours at 37°C; read-out: MIC
Experimental: as §1, §2

[18] = system: Serratia marcescens 1826E; details: Serratia marcescens 1826E; Mueller-Hinton agar, 20 hours at 37°C; read-out: MIC
Experimental: as §1, §2

[19] = system: Staphylococcus aureus 241; details: Staphylococcus aureus 241; Mueller-Hinton agar, 20 hours at 37°C; read-out: MIC
Experimental: as §1, §2

[20] = system: Staphylococcus aureus 6538p; details: Staphylococcus aureus 6538p; Mueller-Hinton agar, 20 hours at 37°C; read-out: MIC
Experimental: as §1, §2

Staphylococcus aureus 77 = details: Staphylococcus aureus 77; Mueller-Hinton agar, 20 hours at 37°C; read-out: MIC
Experimental: as §1, §2

[21] = system: Staphylococcus aureus giorgio; details: Staphylococcus aureus giorgio; Mueller-Hinton agar, 20 hours at 37°C; read-out: MIC
Experimental: as §1, §2

[22] = system: Staphylococcus epidermidi 887E; details: Staphylococcus epidermidi 887E; Mueller-Hinton agar, 20 hours at 37°C; read-out: MIC
Experimental: as §1, §2

SMILES | MIC [1] | MIC [2] | MIC [3] | MIC [4] | MIC (Enterobacter cloacae P99) | MIC [5] | MIC (Escherichia coli 10536) | MIC [6] | MIC [7] | MIC [8] | MIC [9] | MIC [11] | MIC [12] | MIC [13] | MIC [14] | MIC (Proteus vulgaris 6059) | MIC [15] | MIC [16] | MIC [17] | MIC [18] | also measured
CC(C)(O/N=C(\C(=O)N[C@@H]1C(=O)N2C(C(=O)[O-])=C(C[n+]3ccccc3)CS[C@H]12)c1csc(N)n1)C(=O)O [Ceftazidime, reference compound] | 2 µg/mL (≈ 3.66 µM) | 0.25 µg/mL (≈ 0.457 µM) | 0.13 µg/mL (≈ 0.238 µM) | 0.5 µg/mL (≈ 0.915 µM) | 32 µg/mL (≈ 58.5 µM) | > 128 µg/mL | 0.063 µg/mL (≈ 0.115 µM) | 0.13 µg/mL (≈ 0.238 µM) | 8 µg/mL (≈ 14.6 µM) | > 128 µg/mL | 0.25 µg/mL (≈ 0.457 µM) | 0.5 µg/mL (≈ 0.915 µM) | 0.016 µg/mL (≈ 0.0293 µM) | 0.031 µg/mL (≈ 0.0567 µM) | 0.063 µg/mL (≈ 0.115 µM) | 0.031 µg/mL (≈ 0.0567 µM) | 1 µg/mL (≈ 1.83 µM) | 32 µg/mL (≈ 58.5 µM) | 0.25 µg/mL (≈ 0.457 µM) | 0.25 µg/mL (≈ 0.457 µM) | MIC (E. coli): 0.031 µg/mL (≈ 0.0567 µM); MIC (Escherichia coli 3190Y; Escherichia coli 3190Y, Mueller-Hinton agar, 20 hours at 37°C, read-out: MIC): 0.031 µg/mL (≈ 0.0567 µM); MIC (Escherichia coli 851E; Escherichia coli 851E, Mueller-Hinton agar, 20 hours at 37°C, read-out: MIC): 0.063 µg/mL (≈ 0.115 µM); MIC (H. influenzae): 0.063 µg/mL (≈ 0.115 µM); MIC ([10]; SHV11976E, Klebsiella aerogenes SHV-1 1976E, Mueller-Hinton agar, 20 hours at 37°C, read-out: MIC): 0.25 µg/mL (≈ 0.457 µM); MIC (P. vulgaris): 0.031 µg/mL (≈ 0.0567 µM); MIC (S. aureus): 4 µg/mL (≈ 7.32 µM); MIC (S. pneumoniae): 8 µg/mL (≈ 14.6 µM); MIC [19]: > 128 µg/mL; MIC [20]: 16 µg/mL (≈ 29.3 µM); MIC (Staphylococcus aureus 77): 32 µg/mL (≈ 58.5 µM); MIC [21]: 4 µg/mL (≈ 7.32 µM); MIC [22]: > 128 µg/mL
Nc1cc(SC2=C(C(=O)O)N3C(=O)C(NC(=O)/C(=N\O)c4csc(N)n4)C3SC2)nc(N)n1 (stereo not shown) [compound 26, 7-[(Z)-2-(2-amino-thiazol-4-yl)-2-hydroxyimino-acetylamino]-3-(2,6-diamino-pyrimidin-4-ylsulfanyl)-8-oxo-5-thia-1-azabicyclo[4,2,0]oct-2-ene-2-carboxylic acid] | 32 µg/mL (≈ 62.8 µM) | > 64 µg/mL | 8 µg/mL (≈ 15.7 µM) | > 64 µg/mL | > 64 µg/mL | 16 µg/mL (≈ 31.4 µM) | 0.063 µg/mL (≈ 0.124 µM) | 0.5 µg/mL (≈ 0.981 µM) | 64 µg/mL (≈ 126 µM) | 32 µg/mL (≈ 62.8 µM) | > 64 µg/mL | 1 µg/mL (≈ 1.96 µM) | ≤ 0.008 µg/mL | 0.016 µg/mL (≈ 0.0314 µM) | 0.25 µg/mL (≈ 0.491 µM) | 0.031 µg/mL (≈ 0.0608 µM) | > 64 µg/mL | > 64 µg/mL | 0.13 µg/mL (≈ 0.255 µM) | 64 µg/mL (≈ 126 µM) | MIC (Escherichia coli 3190Y; Escherichia coli, 3190Y, 20 h): 0.031 µg/mL (≈ 0.0608 µM); MIC (Escherichia coli 851E; Escherichia coli, 851E, 20 h): 0.063 µg/mL (≈ 0.124 µM); MIC ([10]; Klebsiella aerogenes, 20 h): 0.5 µg/mL (≈ 0.981 µM); MIC [19]: 8 µg/mL (≈ 15.7 µM); MIC [20]: 0.5 µg/mL (≈ 0.981 µM); MIC (Staphylococcus aureus 77): 2 µg/mL (≈ 3.92 µM); MIC [21]: 0.25 µg/mL (≈ 0.491 µM); MIC [22]: 2 µg/mL (≈ 3.92 µM)
